These results are taken from patent US20130236568A1, “PHOSPHAPLATINS HAVING ANTI-ANGIOGENIC, ANTI-METASTATIC, AND PRO-APOPTOTIC PROPERTIES AND USES THEREOF” (Ohio University, priority 2011, published 2013).

Holding throughout (type): cell-based, human
Assay [1] deals with PTEN. Briefly: Expression of key genes with and without p53 inhibitor (Table 3): PTEN. As to conditions: positive = manifold increase, negative = decrease vs untreated cells. Here is the method:
(§1) Quantitative real-time PCR experiments were performed to estimate the expression of a selection of targeted genes. HUVEC cells (Lonza Walkersville, Frederick, Md.) were cultured on 0.1% gelatin-coated petri dishes by following standard protocols recommended by the vendor in a humidified incubator by maintaining 5% CO2 at 37° C. Human epithelial ovarian cancer cells (A2780) and cisplatin-resistant cells (A2780/C30) were cultured in RPMI 1640 with or without cisplatin (7 μM) and pyrodach-4 (180 μM) for 0, 3, 12 and 24 hours. […] HUVECs were treated with or without cisplatin (7 μM) or pyrodach-4 (90 or 180 μM) for various durations ranging from 1 hr. to 6 hrs.
(§2) Both treated and untreated cancer cells were maintained in RPMI 1640 medium with 10% fetal bovine serum, 2 μmol L-glutamine, 100 units/mL penicillin-streptomycin and 0.25 units/mL insulin solution, at 37° C. with 5% CO2. RNA was isolated from both the treated and untreated cells. […] The quantity and purity of RNA were determined by UV spectroscopy (NanoDrop 2000 Thermo Scientific, Wilmington, Del.). A minimum absorbance ratio index (ratio of the absorbance measured at 260 nm over that at 280 nm) of 1.9 was used as an acceptable purity. […] The target gene was labeled with a blue dye (FAM, absorbance: 494 nm, emission: 518 nm) while the reference gene was tagged with a green dye (VIC, absorbance: 538 nm, emission: 554 nm). […]

In assay [2] the test system is PUMA. Briefly: Quantitative real-time PCR, PUMA expression in HUVEC. As to conditions: HUVEC treated with pyrodach-4. As to the method:
(§3) Evaluations of selected gene expressions in Human Umbilical Vein Endothelial Cells (HUVEC) and Human Ovarian Cancer Cells by quantitative reverse transcriptase polymerase chain reaction (PCR)
(§4) Quantitative real-time PCR experiments were performed to estimate the expression of a selection of targeted genes. HUVEC cells (Lonza Walkersville, Frederick, Md.) were cultured on 0.1% gelatin-coated petri dishes by following standard protocols recommended by the vendor in a humidified incubator by maintaining 5% CO2 at 37° C. […]
as §2, with “CO2.” for “CO2. RNA was isolated from both the treated and untreated cells.”
(§5) The threshold cycle number (Ct), the point at which the fluorescence of the qPCR reaction just exceeds the threshold fluorescence of the detection system, was determined. […]
For orientation: In qPCR the cycle at which signal appears reflects the starting amount.

For assay [3], the system named is Bcl-2. Put plainly: Expression of key genes with and without p53 inhibitor (Table 3): Bcl-2. To be noted: positive = manifold increase, negative = decrease vs untreated cells. Here is the method: as §1, §2
Assay [4] has as its system PTEN. Briefly: Quantitative real-time PCR, PTEN expression in A2780/C30 cells. Here is the method:
as §3, §4
as §2, with “CO2.” for “CO2. RNA was isolated from both the treated and untreated cells.”
as §5

In assay [5] the test system is A2780/C30 cells. Put plainly: Cell death detection assay with ELISA, A2780/C30 cells. Background: An ELISA detects its analyte on a solid surface through an enzyme-linked reagent.
Procedure: The different treatment groups from left to right are: control, 7 μM cisplatin, Con+PFT-α, 180 μM D4, 180 μM D4+PFT-α, 180 μM D4+LY294002. Apoptosis was quantified using the Cell Death Detection ELISA from Roche.
A2780 and A2780/C30 cells were grown in monolayers, trypsinized and suspended in supplemented RPMI 1640 media as described in Example 5. All the treatments on the Fc/A2780 and Fc/A2780/C30 cell samples were carried out in triplicate. The ELISA was performed according to the manufacturer's instructions. Briefly, 50,000 cells were plated for each treatment and the cells were allowed to adhere for 4-6 hours. Cells were then either incubated with media alone (untreated sample) or with pyrodach-4 or cisplatin in the concentrations indicated above. DNA of the treated and untreated cells was assayed for nucleosomal DNA using the ELISA kit (purchased from Roche Diagnostics, Mannheim, Germany). The cells were lysed for 30 minutes using the lysis buffer. After centrifuging, 10% (v/v) supernanant was incubated with anti-histone-biotin and anti-DNA-peroxidase. After two hour incubation, the pellets were washed three times and incubated with the substrate solution. The absorbances were measured at 405 and 490 nm for each treatment type using SPECTRA Max M2 multichannel fluorescence plate reader (Molecular Devices, Sunnyvale, Calif.). The absorbances of the treated samples were normalized to the substrate solution.
The subject of assay [6] is A2780 cells. Briefly: Cell death detection assay with ELISA, A2780 cells. As to conditions: 24 hr. As to the method:
In these experiments, ovarian cancer cells were treated with pyrodach-4 in the presence and absence of inhibitors PFT-α (an inhibitor p53) and LY29400 (an inhibitor of PI3K).
Cells were treated with compounds for 24 hr. The different treatment groups from left to right are: control, 7 μM cisplatin, Con+PFT-α, 180 μM D4, 180 μM D4+PFT-α, 180 μM D4+LY294002. Statistical analysis was conducted using the Tukey test. N=3 and P<0.05. In the figure, “*” indicates values significant from untreated control.
A2780 and A2780/C30 cells were grown in monolayers, trypsinized and suspended in supplemented RPMI 1640 media as described in Example 5. All the treatments on the Fc/A2780 and Fc/A2780/C30 cell samples were carried out in triplicate. The ELISA was performed according to the manufacturer's instructions. Briefly, 50,000 cells were plated for each treatment and the cells were allowed to adhere for 4-6 hours. Cells were then either incubated with media alone (untreated sample) or with pyrodach-4 or cisplatin in the concentrations indicated above. […] The absorbances were measured at 405 and 490 nm for each treatment type using SPECTRA Max M2 multichannel fluorescence plate reader (Molecular Devices, Sunnyvale, Calif.). The absorbances of the treated samples were normalized to the substrate solution. […]

In assay [7] the test system is Caspase 3. Put plainly: Expression of key genes with and without p53 inhibitor (Table 3): Caspase 3. To be noted: positive = manifold increase, negative = decrease vs untreated cells. Here is the method:
as §1, §2

The mark [8] stands for this setting: 180 μM D4 with PFT-α 15 μM or LY294002 30 μM.

With “trans-(±)-1,2-cyclohexanediamine-trans-dihydroxo(pyrophosphato) platinum(IV) [Pyrodach-4]”, the “Expression of PTEN” value is on record as −1.3 in assay [1] (Pyrodach-4 + PFT-α) and 5.5 in assay [1] (Pyrodach-4 treatment only). Further, the “Over-expression of PUMA” value in assay [2] is 10-15 fold. Moreover, the “Expression of Bcl-2” value in assay [3] (Pyrodach-4 + PFT-α) is on record as −2.0; in assay [3] (Pyrodach-4 treatment only), 1.0. Further, the “Expression of the PTEN gene compared to control” value in assay [4] was determined as 2.3 fold. Further, the “Normalized expression of PTEN” value in assay [4] (pyrodach-4 alone, control = 1.0) was 2.3. The “Apoptotic cell death (ELISA absorbance)” value in assay [5] (7 μM cisplatin or 180 μM D4) is recorded as “unambiguously showed cell death”. Also, the “Effect of p53 and PI3K inhibitors on apoptotic cell death (ELISA absorbance)” value in assay [5] (setting [8]) is on record as “no effects”; in assay [6] (setting [8]), “some reduction in cell death”. Further, the “Overall apoptotic cell death in the presence of inhibitors, compared to cisplatin” value in assay [6] (180 μM D4 with PFT-α 15 μM or LY294002 30 μM vs 7 μM cisplatin) is on record as “remained extremely high compared to cisplatin”. Also, the “Expression of Caspase 3” value in assay [7] (Pyrodach-4 + PFT-α) was −1.2; in assay [7] (Pyrodach-4 treatment only), 2.6.
